Measured values taken from US8821568B2, “Implant modified with non-hydroxylated vitamin D precursors” (Numat Biomedical S.L., priority 2008, dated 2014).

What was measured:
MC3T3-E1 cells [1] = test: Cell number (DNA content) and cell covered surface on coated titanium implants; assay type: cell-based, mouse; conditions: Ti implants, 48 h
Experimental: Cells growing on the different surfaces were lysed after 48 hours of cell culture by a freeze-thaw method in deionized distilled water. Cell lysates were used for determination of DNA quantity using Hoechst 33258 fluorescence assay. Samples were mixed with 20 μg/ml of Hoechst 33258 fluorescence stain (Sigma, St. Quentin Fallavier, France) in THE buffer at pH 7.4 containing 10 mM Tris-HCl, 1 mM EDTA and 2 M NaCl. The intensity of fluorescence was measured at excitation and emission wavelengths of 356/465 nm using a multifunction microplate reader (Cary Eclipse fluorescence spectrophotometer, Agilent Technologies, Santa Clara, United States). Relative fluorescence units were correlated with the cell number using a linear standard curve.
Confocal images were obtained of cells growing in the different treated surfaces at 48 hours of cell culture. […] Various images of each implant were taken with the confocal microscope (Leica DMI 4000B equipped with Leica TCS SPE laser system) by measuring fluorescence signal between 430-480 nm for DAPI and 500-525 nm for Phalloiding-FITC. […]
Quantitation of the percentage of titanium surface covered with MC3T3-E1cells was achieved by analyzing the previous images with ImageJ software (Rasband, W. S., ImageJ, U. S. National Institutes of Health, Bethesda, Md., USA).

MC3T3-E1 cells [2] = test: LDH activity (cytotoxicity) of cells on treated tissue culture plastic wells; assay type: cell-based, mouse; conditions: TCP wells; after 24 hours; UV-treated (302 nm, 30 min); higher dose (20 nmols); compared to low control
Experimental: To treat tissue culture plastic (TCP) wells, 10 μl of each dilution treatment were left on the surfaces and were allowed to air-dry for 15 min in the sterile flow bench. For UV-irradiation, a UV lamp of 302 nm was used at an intensity of irradiation of 6 mW/cm^2 (UVP, Upland, Calif., USA) during 30 minutes. Treated surfaces were immediately used for cell culture experiments.
To test the effect of the different treatments onto the plastic wells, 96-well plates made of polystyrene were used and the treatments with 7-DHC performed directly onto them. Cells grown onto untreated TCP were added as a control for all the experiments. Cells were seeded at a density of 30,000 cells/cm^2 and they were maintained in α-MEM supplemented with 10% FCS and antibiotics. […]
Lactate dehydrogenase (LDH) activity in the culture media was used as an index of cell death. LDH activity was determined spectrophotometrically after 30 min incubation at 25° C. of 50 μl of culture and 50 μl of the reaction mixture by measuring the oxidation of NADH at 490 nm in the presence of piruvate following the manufacturer's protocol (Cytotoxicity Detection Kit (LDH), Roche Diagnostics, Mannheim, Germany). […]

SMILES: CC(C)CCC[C@@H](C)[C@H]1CC[C@H]2C3=CC=C4C[C@@H](O)CC[C@]4(C)[C@H]3CC[C@]12C [7-DHC, 7-dehydrocholesterol]
- Cell number (DNA content) (MC3T3-E1 cells [1]; 30 minutes of UV irradiation vs UV-untreated): significantly higher amount of cells
- Percentage of implant surface covered with cells (MC3T3-E1 cells [1]; 30 minutes of UV irradiation vs without irradiation): significant greatest percentage
- Cytotoxicity (LDH activity in culture media) (MC3T3-E1 cells [2]): toxic effect
